Measured values as given in ChEMBL document CHEMBL2390817, “Structure-activity relationship of human glutaminyl cyclase inhibitors having an N-(5-methyl-1H-imidazol-1-yl)propyl thiourea template” (Bioorg Med Chem, 2013).

The compounds below were run against Glutaminyl-peptide cyclotransferase (Homo sapiens, UniProt Q16769) (assay: Inhibition of human glutaminyl cyclase expressed in HEK293 cells using L-glutaminyl-beta-naphthylamine as substrate after 1 hr by fluorometric analysis).
Chain of Glutaminyl-peptide cyclotransferase (Q16769 whole entry): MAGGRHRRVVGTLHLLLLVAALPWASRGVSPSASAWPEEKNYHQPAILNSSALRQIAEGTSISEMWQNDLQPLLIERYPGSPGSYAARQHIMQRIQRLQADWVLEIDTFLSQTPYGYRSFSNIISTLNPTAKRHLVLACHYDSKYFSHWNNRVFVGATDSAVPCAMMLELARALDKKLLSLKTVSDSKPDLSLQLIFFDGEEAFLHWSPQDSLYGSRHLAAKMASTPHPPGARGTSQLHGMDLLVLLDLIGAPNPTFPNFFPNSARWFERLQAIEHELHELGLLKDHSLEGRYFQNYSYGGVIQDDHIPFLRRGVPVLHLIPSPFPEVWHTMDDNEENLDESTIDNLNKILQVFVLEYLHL
`Cc1cncn1CCCNC(=S)Nc1ccc2cnccc2c1` was tested, and the IC50 was “Active”. `Cc1cncn1CCCNC(=S)Nc1cccc2cccnc12` was tested, and the IC50 was “Active”. With `Cc1cncn1CCCNC(=S)Nc1cccnc1` the IC50 was “Active”. With `Cc1cncn1CCCNC(=S)Nc1cnc2ccccc2c1` the IC50 was “Active”. In the case of `Cc1cncn1CCCNC(=S)Nc1cccc2c1OCCO2`, the IC50 was “Not Active”. With `Cc1cncn1CCCNC(=S)Nc1ccc2cc[nH]c2c1` the IC50 was “Active”. With `Cc1cncn1CCCNC(=S)Nc1ccc2c(c1)CCC2` the IC50 was “Active”.
